What all share (assay type): in vivo
Assay [1] deals with pigweed (Amaranthus retroflexus). Kind of assay: Test C postemergence, plant response rating. The settings on record: for Pigweed plant response rating: scale 0 to 100 (0 no effect, 100 complete control). An outline of the steps: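 After sowing in loam–sand blend or silt loam, pots were sprayed preemergence; separately grown 1- to 4-leaf plants were sprayed postemergence. Following 13 to 15 d under greenhouse conditions, injury was rated visually on a 0 to 100 scale.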

Assay [2] has as its system barnyardgrass (Echinochloa crus-galli). The assay is described as follows: Test C flooded paddy test, plant response rating. The settings on record: flood, scale 0 to 100. An excerpt: (§1) At the same time, plants selected from these crop and weed species and also chickweed (common chickweed, Stellaria media), buckwheat, wild (wild buckwheat, Polygonum convolvulus), wild mustard (Sinapis arvensis), field poppy (Papaver rhoeas), field violet (Viola arvensis), geranium, cutleaf (cutleaf geranium, Geranium dissectum), Canada thistle (Cirsium arvense), and speedwell (bird's-eye speedwell, Veronica persica), were planted in pots containing Sunshine Redi-Earth® planting medium comprising spaghnum peat moss, vermiculite, starter nutrients and dolomitic limestone and treated with postemergence applications of test chemicals formulated in the same manner. Plants ranged in height from 2 to 18 cm (1- to 4-leaf stage) for postemergence treatments. Treated plants and controls were maintained in a greenhouse for 13 to 15 d, after which time all species were compared to controls and visually evaluated. Plant response ratings, summarized in Table C, are based on a scale of 0 to 100 where 0 is no effect and 100 is complete control. A dash (-) response means no test result.
(§2) Plant species in the flooded paddy test consisted of rice (Oryza sativa), sedge, umbrella (small-flower umbrella sedge Cyperus difformis), ducksalad (Heteranthera limosa), and barnyardgrass (Echinochloa crus-galli) grown to the 2-leaf stage for testing. At time of treatment, test pots were flooded to 3 cm above the soil surface, treated by application of test compounds directly to the paddy water, and then maintained at that water depth for the duration of the test.

In assay [3] the test system is ducksalad (Heteranthera limosa). Kind of assay: Test C flooded paddy test, plant response rating. The settings on record: flood, scale 0 to 100.
Excerpt: as §1, §2

Assay [4] relates to rice (Oryza sativa). Kind of assay: Test C flooded paddy test, plant response rating. The settings on record: flood, scale 0 to 100.
Excerpt: as §1, §2

The subject of assay [5] is sedge, umbrella (small-flower umbrella sedge Cyperus difformis). The assay is described as follows: Test C flooded paddy test, plant response rating. The settings on record: flood, scale 0 to 100.
Excerpt: as §1, §2

Turning to `O=C(CCC(F)(F)F)c1c(Br)cccc1Oc1ncc(Cl)cn1` [Compound 92], the “Plant response rating, Pigweed” value in assay [1] (16 g ai/ha, scale of 0 to 100) is recorded as 85; in assay [1] (31 g ai/ha, scale 0 to 100), 90. Moreover, the “Pigweed plant response rating” value in assay [1] (62 g ai/ha) turned out to be 98; in assay [1] (125 g ai/ha), 100. Moreover, the “Barnyardgrass plant response rating” value in assay [2] (31 g ai/ha) is listed as 0; in assay [2] (62 g ai/ha) it was 0; in assay [2] (125 g ai/ha), 20; in assay [2] (250 g ai/ha), 40. The “Ducksalad plant response rating” value was 30 in assay [3] (31 g ai/ha), 60 in assay [3] (62 g ai/ha), 95 in assay [3] (125 g ai/ha) and 100 in assay [3] (250 g ai/ha). Also, the “Rice plant response rating” value was 10 in assay [4] (31 g ai/ha), 15 in assay [4] (62 g ai/ha), 15 in assay [4] (125 g ai/ha) and 15 in assay [4] (250 g ai/ha). The “Sedge, Umbrella plant response rating” value in assay [5] (31 g ai/ha) was found to be 20; in assay [5] (62 g ai/ha) it was 60; in assay [5] (125 g ai/ha), 90; in assay [5] (250 g ai/ha), 100.

The values are drawn from patent US11053204B2, “Pyrimidinyloxy benzene derivatives as herbicides” (FMC Corporation, priority 2015, dated 2021).
